Where a name gives a salt, the structure may show the parent alone.
molecular target: T1, S1P1 (Homo sapiens, UniProt P21453); assay: 35S-GTPγS binding, S1P1 membranes; type: biochemical; conditions: membranes from CHO cells expressing S1P1; 60 min 30° C.
T1 construct: expressed in transfected cells; host or cells: CHO cells (membranes)
Experimental: Receptor binding assay: Membranes were prepared from CHO cells expressing S1P1 or S1P3 for use in ligand and […] binding studies. Cells were suspended in 50 mM TRIS, pH 7.4, 2 mM EDTA, 250 mM Sucrose (buffer A) and 1× Complete protease inhibitor cocktail (Roche), and disrupted at 4° C. by N2 decompression using a cell disruption bomb (Parr Instrument). Following centrifugation at 1000 RPM for 10 min at 4° C., the supernatant was suspended in buffer A and centrifuged again at 19000 RPM for 60 min at 4° C. The pellet was then suspended in 10 mM HEPES, pH 7.4, 1 mM EDTA, 250 mM Sucrose (Buffer B), and 1× Complete EDTA-free protease inhibitor cocktail and homogenized using a potter. Membranes were flash frozen in liquid N2 and stored at −80° C. [33P]sphingosine 1-phosphate (3000 Ci/mmol; American Radiolabeled Chemicals, Inc.) was added to test compounds in DMSO. Membranes and WGA SPA beads (GE Healthcare) were added to give a final volume of 100 μl in 96-well plates with assay concentrations of 25 pM or 10 pM [33P]sphingosine 1-phosphate (respectively for S1P1 or S1P3), 50 mM HEPES, pH 7.5, 5 mM MgCl2, 100 mM NaCl, 0.4% fatty acid-free BSA, 1-5 μg/well of proteins and 100 μg/well of WGA SPA beads. Binding was performed for 60 min at RT on a shaker and bound radioactivity was measured on a PerkinElmer 1450 MicroBeta counter. Specific binding was calculated by subtracting remaining radioactivity in the presence of 1000-fold excess of unlabeled S1P. Binding data were analyzed using the GraphPad Prism program.
Measurements of ^35S-GTPγS Binding: Membranes (1 to 10 μg protein) prepared as described above, were incubated in 96-well Scintiplates (PerkinElmer) with test compounds diluted in DMSO, in 180 μl of 20 mM HEPES, pH 7.4, 10 mM MgCl2, 2 μg/well Saponin, 0.2% fatty acid free BSA (Assay buffer), 140 mM NaCl and 1.7 μM GDP. The assay was initiated with the addition of 20 μl of 1.5 nM [35S]-GTPγS (1100 Ci/mmol; GE Healthcare) in assay buffer. After 60 min incubation at 30° C. on a shaker, plates were centrifuged for 10 min at 2000 RPM. Supernatant was discarded and membrane bound radioactivity was measured on a PerkinElmer 1450 MicroBeta counter. Triplicate samples were averaged and expressed as % response relative to S1P activation in absence of compound (n=2).

T1 sequence (P21453 whole entry, species assumed): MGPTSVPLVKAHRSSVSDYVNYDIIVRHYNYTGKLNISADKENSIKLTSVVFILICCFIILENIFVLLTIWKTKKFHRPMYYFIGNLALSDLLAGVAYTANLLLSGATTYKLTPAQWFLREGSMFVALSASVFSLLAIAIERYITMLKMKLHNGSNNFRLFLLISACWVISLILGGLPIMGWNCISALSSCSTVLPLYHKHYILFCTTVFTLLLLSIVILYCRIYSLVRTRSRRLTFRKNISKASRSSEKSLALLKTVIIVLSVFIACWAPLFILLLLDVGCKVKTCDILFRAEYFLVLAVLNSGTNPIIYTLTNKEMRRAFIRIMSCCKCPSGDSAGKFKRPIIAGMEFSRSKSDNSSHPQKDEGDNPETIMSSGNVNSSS

EC50 [nM] | Compound
8.6 | COCc1cc(-c2nc(-c3cccc(C(=O)NCC(=O)OC)c3)no2)ccc1-c1ccccc1C [Example 130, Methyl N-(3-{5-[2-(methoxymethyl)-2′-methylbiphenyl-4-yl]-1,2,4-oxadiazol-3-yl}benzoyl)glycinate]
6.1 | COCCOCc1cccc(-c2noc(-c3ccc(-c4ccccc4C)c(COC)c3)n2)c1 [Example 192]
25.2 | COCc1cc(-c2nc(-c3cccc(CNCCC(=O)OC(C)(C)C)c3)no2)ccc1-c1ccccc1C [Example 153, tert-butyl N-(3-{5-[2-(methoxymethyl)-2′-methylbiphenyl-4-yl]-1,2,4-oxadiazol-3-yl}benzyl)-beta-alaninate]
1.2 | COCc1cc(-c2nc(-c3ccc(F)c(CN(C)CCC(=O)O)c3)no2)ccc1-c1ccccc1C [Example 154, N-(2-fluoro-5-{5-[2-(methoxymethyl)-2′-methylbiphenyl-4-yl]-1,2,4-oxadiazol-3-yl}benzyl)-N-methyl-beta-alanine, Hydrochloride salt]
33 | COCCNC(=O)c1ccc(-c2noc(-c3ccc(-c4ccccc4C)c(COC)c3)n2)cc1F [Example 172, 2-fluoro-N-(2-methoxyethyl)-4-{5-[2-(methoxymethyl)-2′-methylbiphenyl-4-yl]-1,2,4-oxadiazol-3-yl}benzamide]
133 | COCc1cc(-c2nc(-c3cc(C(=O)O)ccc3OC)no2)ccc1-c1ccccc1C [Example 107, 4-methoxy-3-{5-[2-(methoxymethyl)-2′-methylbiphenyl-4-yl]-1,2,4-oxadiazol-3-yl}benzoic acid]
2.9 | COCc1cc(-c2nc(-c3cccc(C(=O)NCCC(=O)OC)c3)no2)ccc1-c1ccccc1C [Example 132, Methyl N-(3-{5-[2-(methoxymethyl)-2′-methylbiphenyl-4-yl]-1,2,4-oxadiazol-3-yl}benzoyl)-beta-alaninate]
479 | CCOc1ccccc1-c1ccc(-c2nc(-c3ccc(C(=O)O)c(F)c3)no2)cc1COC [Example 90, 4-{5-[2′-ethoxy-2-(methoxymethyl)biphenyl-4-yl]-1,2,4-oxadiazol-3-yl}-2-fluorobenzoic acid]
35 | COCc1cc(-c2nc(-c3ccc(C(=O)NCCCC(=O)OC)c(F)c3)no2)ccc1-c1ccccc1C [Example 126, Methyl 4-[(2-fluoro-4-{5-[2-(methoxymethyl)-2′-methylbiphenyl-4-yl]-1,2,4-oxadiazol-3-yl}benzoyl)amino]butanoate]
142 | CCOC(=O)C1(NCc2cccc(-c3noc(-c4ccc(-c5ccccc5C)c(COC)c4)n3)c2)CC1 [Example 140, Ethyl 1-[(3-{5-[2-(methoxymethyl)-2′-methylbiphenyl-4-yl]-1,2,4-oxadiazol-3-yl}benzyl)amino]cyclopropanecarboxylate]
1580 | COCc1cc(-c2nc(-c3ccc(C(=O)O)c(F)c3)no2)ccc1-c1cccc(OC)c1OC [Example 82, 4-{5-[2′,3′-dimethoxy-2-(methoxymethyl)biphenyl-4-yl]-1,2,4-oxadiazol-3-yl}-2-fluorobenzoic acid]
772 | Cc1ccccc1-c1ccc(-c2nc(-c3ccc(C(=O)O)c(F)c3)no2)cc1CN1CCCC1 [Example 76, 2-fluoro-4-{5-[2′-methyl-2-(pyrrolidin-1-ylmethyl)biphenyl-4-yl]-1,2,4-oxadiazol-3-yl}benzoic acid, Hydrochloride salt]
7000 | Cc1cc(-c2nc(-c3ccc(C(=O)O)c(F)c3)no2)ccc1N1CCOCC1 [Example 18, 2-fluoro-4-[5-(3-methyl-4-morpholin-4-ylphenyl)-1,2,4-oxadiazol-3-yl]benzoic acid]
1.6 | COCc1cc(-c2nc(-c3ccc(OCCCC(=O)O)c(F)c3)no2)ccc1N1CCCCC1C (stereo not drawn) [Example 165, 4-(2-fluoro-4-{5-[3-(methoxymethyl)-4-(2-methylpiperidin-1-yl)phenyl]-1,2,4-oxadiazol-3-yl}phenoxy)butanoic acid]
5180 | O=C(O)c1ccc(-c2noc(-c3ccc(N4CCCCC4)c([N+](=O)[O-])c3)n2)cc1F [Example 14, 2-fluoro-4-[5-(3-nitro-4-piperidin-1-ylphenyl)-1,2,4-oxadiazol-3-yl]benzoic acid]
2.9 | COc1cc(-c2nc(-c3ccc(S(N)(=O)=O)cc3)no2)ccc1-c1cscc1C [Example 39, 4-{5-[3-methoxy-4-(4-methyl-3-thienyl)phenyl]-1,2,4-oxadiazol-3-yl}benzenesulfonamide]
5.2 | COCc1cc(-c2nc(-c3ccc(OCC(=O)O)c(F)c3)no2)ccc1N1CCCCC1C (stereo not drawn) [Example 169, (2-fluoro-4-{5-[3-(methoxymethyl)-4-(2-methylpiperidin-1-yl)phenyl]-1,2,4-oxadiazol-3-yl}phenoxy)acetic acid, hydrochloride salt]
4640 | Cc1ccccc1-c1ccc(-c2nc(-c3ccc(C(=O)O)c(Cl)c3)no2)cc1CS(C)(=O)=O [Example 88, 2-chloro-4-(5-{2′-methyl-2-[(methylsulfonyl)methyl]biphenyl-4-yl}-1,2,4-oxadiazol-3-yl)benzoic acid]
3990 | Cc1ccccc1-c1ccc(-c2nc(-c3ccc(C(=O)O)c(F)c3)no2)cc1S(C)(=O)=O [Example 83, 2-fluoro-4-{5-[2′-methyl-2-(methylsulfonyl)biphenyl-4-yl]-1,2,4-oxadiazol-3-yl}benzoic acid]
2930 | Cc1ccccc1-c1ccc(-c2nc(-c3ccc(C(=O)O)c(F)c3)no2)cc1CO [Example 58, 2-fluoro-4-{5-[2-(hydroxymethyl)-2′-methylbiphenyl-4-yl]-1,2,4-oxadiazol-3-yl}benzoic acid]
0.6 | COCc1cc(-c2nc(-c3cccc(COCC(=O)O)c3)no2)ccc1-c1ccccc1C [Example 160, [(3-{5-[2-(methoxymethyl)-2′-methylbiphenyl-4-yl]-1,2,4-oxadiazol-3-yl}benzyl)oxy]acetic acid]
9 | COCc1cc(-c2nc(-c3ccc(C(=O)NCCC(=O)OC)c(F)c3)no2)ccc1-c1ccccc1C [Example 117, Methyl N-(2-fluoro-4-{5-[2-(methoxymethyl)-2′-methylbiphenyl-4-yl]-1,2,4-oxadiazol-3-yl}benzoyl)-beta-alaninate]
163 | COCc1cc(-c2nc(-c3ccc(Cl)c(C(=O)O)c3)no2)ccc1-c1ccccc1C [Example 108, 2-chloro-5-{5-[2-(methoxymethyl)-2′-methylbiphenyl-4-yl]-1,2,4-oxadiazol-3-yl}benzoic acid]
2.3 | COCc1cc(-c2nc(-c3cccc(CNCCC(=O)OC)c3)no2)ccc1-c1ccccc1C [Example 145, Methyl N-(3-{5-[2-(methoxymethyl)-2′-methylbiphenyl-4-yl]-1,2,4-oxadiazol-3-yl}benzyl)-beta-alaninate]
197 | CCc1cnc(CCNC(=O)c2ccc(-c3noc(-c4ccc(-c5ccccc5C)c(COC)c4)n3)cc2F)o1 [Example 176, N-[2-(5-ethyl-1,3-oxazol-2-yl)ethyl]-2-fluoro-4-{5-[2-(methoxymethyl)-2′-methylbiphenyl-4-yl]-1,2,4-oxadiazol-3-yl}benzamide]
2010 | COCc1ccccc1-c1ccc(-c2nc(-c3ccc(C(=O)O)c(F)c3)no2)cc1C [Example 87, 2-fluoro-4-{5-[2′-(methoxymethyl)-2-methylbiphenyl-4-yl]-1,2,4-oxadiazol-3-yl}benzoic acid]
48.6 | COCc1cc(-c2nc(-c3cccc(C(=O)N(C)CC(=O)O)c3)no2)ccc1-c1ccccc1C [Example 138, N-(3-{5-[2-(methoxymethyl)-2′-methylbiphenyl-4-yl]-1,2,4-oxadiazol-3-yl}benzoyl)-N-methylglycine]
610 | COCc1cc(-c2nc(-c3ccc(C(=O)O)c(F)c3)no2)ccc1OC(C)C [Example 111, 2-fluoro-4-{5-[4-isopropoxy-3-(methoxymethyl)phenyl]-1,2,4-oxadiazol-3-yl}benzoic acid]

Compound | EC50 [nM]
Cc1ccccc1-c1ccc(-c2nc(-c3ccc(C(=O)O)c(F)c3)no2)cc1COCC(C)C [Example 60, 2-fluoro-4-{5-[2-(isobutoxymethyl)-2′-methylbiphenyl-4-yl]-1,2,4-oxadiazol-3-yl}benzoic acid] | 3700
COCc1cc(-c2nc(-c3cccc(CN(CC(=O)OC(C)(C)C)C(=O)OC(C)(C)C)c3)no2)ccc1-c1ccccc1C [Example 149, Tert-butyl N-(tert-butoxycarbonyl)-N-(3-{5-[2-(methoxymethyl)-2′-methylbiphenyl-4-yl]-1,2,4-oxadiazol-3-yl}benzyl)glycinate] | 1240

From US8202865B2, “Oxadiazole derivatives” (Merck Serono SA, priority 2007, dated 2012)
